Source: US20140121231A1, “PYRANOPYRIDONE INHIBITORS OF TANKYRASE” (Hoffmann-La Roche, Inc., priority 2012, published 2014)
Counter-ions that a name gives are not always drawn.

How the values were obtained:
[1] = test system: Wnt stimulated TCF transcriptional activity; assay: Tankyrase 1 Assay (Example 72): HEK293-TS 112 TCF reporter cell line; assay type: cell-based; settings: footnote 2: Tankyrase 1 inhibition assay in Example 72 (TOPbrite luciferase reporter, Wnt3A 0.5 ug/mL, 16 hours); read-out: TNKS1 IC50
Protocol: Inhibition of the Wnt stimulated TCF transcriptional activity by tankyrase inhibitors was determined utilizing a HEK293-TS 112 TCF reporter cell line. A Wnt-responsive luciferase reporter named TOPbrite was constructed by cloning the enhancer element of Super8xTOPFlash containing eight TCF/LEF binding sites into the pGL4.28 vector (Promega) upstream of the minimal promoter element, and selecting for hygromycin B resistance (50 μg/ml). Cells were seeded into 384-well plates in the presence of 0.5 ug/mL of Wnt3A at a density of 20,000 cells per well in 25 ul of F:12 DMEM media supplemented with 10% FBS and 2 mM Glutamax. Cells seeded without the addition of Wnt3A were used as background signal. Compounds of various concentrations were added to cells and incubated at 37 degrees with 5% CO2 for 16 hours. The assay was terminated with the addition of Promega Dual Glo kit per manufacturer's instructions. A ratio of TOPbrite Firefly Luciferase and SV40 Renillla Luciferase was calculated and the background from the neutral wells was subtracted yielding the final normalized measurement of TCF transcriptional activity. Compound IC50s were determined by four-parameter curve fitting using GeneData software.

[2] = target: T1, PARP1 (His6-PARP1, full length) (Homo sapiens, UniProt P09874); assay: TR-FRET Binding Assay (Example 71), PARP1; settings: TR-FRET assay of Example 71 with His6-PARP1
T1 construct: His6-PARP1 (full length) can be substituted for His6-TNKS 1
T1 sequence (P09874 whole entry, species assumed): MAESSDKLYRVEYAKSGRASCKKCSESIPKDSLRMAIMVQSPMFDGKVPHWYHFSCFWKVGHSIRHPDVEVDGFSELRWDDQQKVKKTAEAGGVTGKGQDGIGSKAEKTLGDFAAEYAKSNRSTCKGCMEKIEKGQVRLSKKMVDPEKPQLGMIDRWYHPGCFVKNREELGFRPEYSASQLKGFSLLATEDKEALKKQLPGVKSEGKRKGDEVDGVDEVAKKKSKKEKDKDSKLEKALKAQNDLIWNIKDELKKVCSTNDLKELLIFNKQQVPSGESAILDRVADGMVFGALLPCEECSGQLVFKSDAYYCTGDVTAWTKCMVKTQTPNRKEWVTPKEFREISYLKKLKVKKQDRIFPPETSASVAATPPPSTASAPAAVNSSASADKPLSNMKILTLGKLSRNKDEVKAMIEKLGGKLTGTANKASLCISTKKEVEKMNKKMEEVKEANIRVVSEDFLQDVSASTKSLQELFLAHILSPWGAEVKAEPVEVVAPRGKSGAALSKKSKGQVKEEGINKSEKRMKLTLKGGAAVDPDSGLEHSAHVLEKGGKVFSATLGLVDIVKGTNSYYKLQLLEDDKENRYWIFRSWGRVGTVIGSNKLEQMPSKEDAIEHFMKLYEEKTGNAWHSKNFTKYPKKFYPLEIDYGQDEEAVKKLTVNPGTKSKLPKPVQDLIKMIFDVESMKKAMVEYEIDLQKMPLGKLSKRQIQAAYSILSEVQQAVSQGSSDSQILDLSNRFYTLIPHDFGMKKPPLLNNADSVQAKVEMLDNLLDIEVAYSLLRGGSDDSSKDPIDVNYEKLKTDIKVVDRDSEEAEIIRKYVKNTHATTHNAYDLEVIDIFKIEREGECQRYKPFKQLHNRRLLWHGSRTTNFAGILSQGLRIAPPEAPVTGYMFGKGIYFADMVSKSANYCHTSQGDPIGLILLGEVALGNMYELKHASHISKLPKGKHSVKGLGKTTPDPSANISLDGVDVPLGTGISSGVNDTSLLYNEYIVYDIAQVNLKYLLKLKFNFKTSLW
In short: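 Competition binding: test compound displaces biotin-IWR2 from His6-PARP1 (full length), read by Eu-streptavidin/APC-anti-His6 TR-FRET. PARP1 30 min at 26°C with compound and probe in Tris pH 7.4 buffer with DTT, BSA and NP-40, then detection reagents for 60 min. Excitation 330 nm, emission 615 and 665 nm; […].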

tankyrase 2 (His6-TNKS2) = target: T2, tankyrase 2 (His6-TNKS2) (Homo sapiens, UniProt Q9H2K2); assay: μHTS-TNKS-IWR2 TR-FRET Binding Assay (Example 71), TNKS2; settings: footnote 1: Tankyrase 1 and 2 inhibition assay in Example 71 (TR-FRET)
T2 construct: His6-tankyrase 2 (construct: 934-1166) (His6-TNKS2)
T2 sequence (Q9H2K2 934-1166): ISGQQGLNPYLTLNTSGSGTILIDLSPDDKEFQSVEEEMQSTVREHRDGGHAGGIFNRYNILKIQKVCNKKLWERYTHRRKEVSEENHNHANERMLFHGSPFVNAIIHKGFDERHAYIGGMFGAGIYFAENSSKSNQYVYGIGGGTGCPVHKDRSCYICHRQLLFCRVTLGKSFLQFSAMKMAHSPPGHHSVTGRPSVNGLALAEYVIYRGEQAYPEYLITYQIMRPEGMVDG

Tankyrase 1 (TNKS1) = target: T3, Tankyrase 1 (TNKS1) (Homo sapiens, UniProt O95271); assay: μHTS-TNKS-IWR2 TR-FRET Binding Assay (Example 71), TNKS1
T3 construct: His6-TNKS1, MW=28.2 KDa (construct: 1088-1327, 1266M)
T3 sequence (O95271 1088-1327): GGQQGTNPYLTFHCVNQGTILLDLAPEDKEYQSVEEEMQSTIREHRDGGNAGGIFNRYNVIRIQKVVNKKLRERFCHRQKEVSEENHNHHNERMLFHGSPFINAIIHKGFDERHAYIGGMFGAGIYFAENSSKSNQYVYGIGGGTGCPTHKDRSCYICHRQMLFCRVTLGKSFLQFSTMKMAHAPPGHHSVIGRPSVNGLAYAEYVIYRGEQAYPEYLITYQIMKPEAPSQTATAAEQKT

Structure (SMILES) | IC50 [2] [nM] | IC50 (tankyrase 2 (His6-TNKS2)) [nM] | IC50 (Tankyrase 1 (TNKS1)) [nM] | IC50 [1] [nM]
Cc1cccc2c(=O)[nH]c3c(c12)COC(C1CCN(S(=O)(=O)C2CCOCC2)CC1)C3 (stereo not shown) [Compound I-74, 10-methyl-3-(1-tetrahydropyran-4-ylsulfonyl-4-piperidyl)-1 3 4 5-tetrahydropyrano[4,3-c]isoquinolin-6-one] |  |  |  | 9.5
Cc1cccc2c(=O)[nH]c3c(c12)COC(C1CCN(C2CCOCC2)CC1)C3 (stereo not shown) [Compound I-72, 10-Methyl-3-(1-tetrahydropyran-4-yl-4-piperidyl)-1 3 4 5-tetrahydropyrano[4,3-c]isoquinolin-6-one] |  |  |  | 92.4
Cc1cccc2c(=O)[nH]c3c(c12)COC(C(C)(C)CO)C3 (racemic) [Compound I-1, rac-2-(2-Hydroxy-1,1-dimethyl-ethyl)-5-methyl-1,2,4,10-tetrahydro-3-oxa-10-aza-phenanthren-9-one] | 91.8 |  |  | 10.6
Cc1cccc2c(=O)[nH]c3c(c12)COC(CC(C)O)C3 (stereo not shown) [Compound I-76, 3-(2-hydroxypropyl)-10-methyl-1 3 4 5-tetrahydropyrano[4,3-c]isoquinolin-6-one] |  |  |  | 15.9
Cc1cccc2c(=O)[nH]c3c(c12)COC(C1CCN(CCO)CC1)C3 (stereo not shown) [Compound I-75, 3-[1-(2-hydroxyethyl)-4-piperidyl]-10-methyl-1 3 4 5-tetrahydropyrano[4,3-c]isoquinolin-6-one] |  |  |  | 27.2
Cc1cccc2c(=O)[nH]c3c(c12)COC(C1CCN(C2COC2)CC1)C3 (stereo not shown) [Compound I-71, 10-methyl-3-[1-(oxetan-3-yl)-4-piperidyl]-1 3 4 5-tetrahydropyrano[4,3-c]isoquinolin-6-one] |  |  |  | 2.01
CC(C)C1Cc2[nH]c(=O)c3cccc(F)c3c2CO1 (stereo not shown) [Compound I-69, 10-Fluoro-3-isopropyl-1 3 4 5-tetrahydropyrano[4,3-c]isoquinolin-6-one] |  |  |  | 11.2
COCCN1CCC(C2Cc3[nH]c(=O)c4cccc(C)c4c3CO2)CC1 (stereo not shown) [Compound I-73, 3-[1-(2-methoxyethyl)-4-piperidyl]-10-methyl-1 3 4 5-tetrahydropyrano[4,3-c]isoquinolin-6-one] |  |  |  | 29.4
CC(C)C1Cc2[nH]c(=O)c3cccc(Cl)c3c2CO1 (stereo not shown) [Compound I-70, 10-chloro-3-isopropyl-1 3 4 5-tetrahydropyrano[4,3-c]isoquinolin-6-one] |  |  |  | 12.9
CC(C)C1Cc2[nH]c(=O)c3ccsc3c2CO1 (racemic) [Compound I-28, rac-7-Isopropyl-5,6,7,9-tetrahydro-8-oxa-1-thia-5-aza-cyclopenta[a]naphthalen-4-one] | 1920 | 177 | 81.8 | 

Now from value to compound, other results behind:

IC50 [2] [nM] | IC50 (tankyrase 2 (His6-TNKS2)) [nM] | IC50 (Tankyrase 1 (TNKS1)) [nM] | Structure (SMILES) | IC50 [1] [nM]
> 50000 | 68.8 | 50.8 | CC(C)C1Cc2[nH]c(=O)c3cnccc3c2CO1 (racemic) [Compound I-15, rac-7-Isopropyl-5,7,8,9-tetrahydro-6-oxa-2,9-diaza-phenanthren-10-one] | 
26 | 28.7 | 28 | Cc1cccc2c(=O)[nH]c3c(c12)COC(C(C)(C)COCc1ccccc1)C3 (stereo not shown) [Compound I-68, 3-(2-benzyloxy-1 1-dimethyl-ethyl)-10-methyl-1 3 4 5-tetrahydropyrano[4 3-c]isoquinolin-6-one] | 
> 50000 | 88.3 | 56.8 | CCC(C)C1Cc2[nH]c(=O)c3ccccc3c2CO1 (stereo not shown) [Compound I-18, 2-sec-Butyl-1,2,4,10-tetrahydro-3-oxa-10-aza-phenanthren-9-one] | 
52.6 | 26.9 | 28.3 | Cc1cccc2c(=O)[nH]c3c(c12)COC(C1CCN(C(=O)C2CC2)CC1)C3 (racemic) [Compound I-63, rac-2-(1-Cyclopropanecarbonyl-piperidin-4-yl)-5-methyl-1,2,4,10-tetrahydro-3-oxa-10-aza-phenanthren-9-one] | 
58.2 | 73.4 | 44 | CC(C)C1Cc2[nH]c(=O)c3cc(Cl)ccc3c2CO1 (racemic) [Compound I-6, rac-7-Chloro-2-isopropyl-1,2,4,10-tetrahydro-3-oxa-10-aza-phenanthren-9-one] | 
2670 | 52.1 | 40.8 | O=c1[nH]c2c(c3ccccc13)COC(CCc1ccccc1)C2 (racemic) [Compound I-13, rac-2-Phenethyl-1,2,4,10-tetrahydro-3-oxa-10-aza-phenanthren-9-one] | 
27.7 | 246 | 168 | O=c1[nH]c2c(c3ccccc13)COC(C1CCNC1)C2 (stereo not shown) [Compound I-36, 2-Pyrrolidin-3-yl-1,2,4,10-tetrahydro-3-oxa-10-aza-phenanthren-9-one, hydrochloride] | 
63.6 | 36.8 | 32.4 | O=c1[nH]c2c(c3ccccc13)COC(C1CCOCC1)C2 (racemic) [Compound I-47, rac-2-(Tetrahydro-pyran-4-yl)-1,2,4,10-tetrahydro-3-oxa-10-aza-phenanthren-9-one] | 
